We go through six compounds from paper PMC7961048, “Hierarchized phosphotarget binding by the seven human 14-3-3 isoforms” (Nature Communications, 2021).

Where two headings read alike, the source gives them in different places. Starred links: 1 amine or outer side, 2 acyl side, 3 side chain; linkers in the order of their positions; H or OH if unused. Non-standard residues stand in square brackets, D forms with d. Residues, ends and D or L forms follow the SMILES beside them. *: point of attachment. X1 = O=C(CCCC[C@@H]1SC[C@@H]2NC(=O)N[C@@H]21)NCCCOCCOCCOCCCN*; pT = C[C@@H](OP(=O)(O)O)[C@H](N)C(=O)O; Suc = O=C(CCC(=O)[*:2])[*:1]

Experiment in all cases: biochemical
Holding throughout (type): binding

The target of one test is T1, 14-3-3β (Homo sapiens, UniProt P31946).
T1 construct: cDNAs encoding other full-length 14-3-3 isoforms β, τ, η, and σ were obtained as codon-optimized; made in house; host or cells: E. coli BL21(DE3)
T1 sequence (P31946 1-246): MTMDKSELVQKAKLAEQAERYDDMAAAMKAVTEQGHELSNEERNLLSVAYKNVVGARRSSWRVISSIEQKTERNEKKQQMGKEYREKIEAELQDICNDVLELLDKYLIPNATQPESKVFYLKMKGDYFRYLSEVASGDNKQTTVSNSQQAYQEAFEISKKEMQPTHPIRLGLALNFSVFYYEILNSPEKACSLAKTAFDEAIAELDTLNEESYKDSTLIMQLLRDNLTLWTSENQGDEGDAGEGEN
The protocol:
(§1) The seven full-length human 14-3-3 isoforms, produced as fusions to a maltose-binding protein (MBP), were analyzed for their interaction with four phospho-PBMs from E6 proteins of HPV types 16, 18, 33, and 35 belonging to subgroups 1 and 2 (as defined in Supplementary Fig. 1). For comparison, we also measured two non-viral phospho-PBMs originating from protein kinase RSK1[28]. We used a competitive fluorescence polarization (FP) assay that measures the displacement of a fluorescent tracer phosphopeptide (here, derived from the HSPB6 protein) bound beforehand to 14-3-3, by an increasing amount of the peptide of interest.
(§2) For affinity measurements, full-length human 14-3-3 constructs with an N-terminal MBP fusion were used. Plasmids containing the cDNAs of the full-length 14-3-3 isoforms ε, γ, and ζ were received from Prof. Lawrence Banks. cDNAs encoding other full-length 14-3-3 isoforms β, τ, η, and σ were obtained as codon-optimized for E. coli expression synthetic genes from IDT Technologies (Coralville, Iowa, USA). All 14-3-3 isoforms were fused via a three-alanine linker to the C terminus of a mutant MBP carrying the following amino acid substitutions facilitating crystallization: D83A, K84A, K240A, E360A, K363A, and D364A[62]. All resulting clones were verified by sequencing. The MBP-fused proteins were expressed in E. coli BL21(DE3) with IPTG induction. Proteins were affinity purified on an amylose column and were further purified by ion-exchange chromatography (HiTrap Q HP, GE Healthcare). Unfused 14-3-3 isoforms devoid of the flexible C-terminal tails (14-3-3βΔC, 14-3-3τΔC 14-3-3εΔC) were expressed using IPTG induction and purified by subtractive IMAC and SEC[40]. Protein concentrations were determined by UV spectroscopy. The samples were supplemented with glycerol and TCEP before aliquoting and freezing in liquid nitrogen.
(§3) Unless otherwise stated, all phosphopeptide-binding measurements were performed using full-length 14-3-3 proteins fused to the C terminus of MBP, favoring optimal solubility and a standardized parallel purification scheme.
(§4) FP was measured with a PHERAstar (BMG Labtech, Offenburg, Germany) microplate reader by using 485 ± 20 and 528 ± 20 nm band-pass filters (for excitation and emission, respectively). In direct FP measurements, a dilution series of the 14-3-3 protein was prepared in 96-well plates (96-well skirted PCR plate, 4ti-0740, 4titude, Wotton, UK) in a 20 mM HEPES pH 7.5 buffer containing 150 mM NaCl, 0.5 mM TCEP, 0.01% Tween 20, 50 nM fluorescently labeled fpB6 peptide, and 100 μM FSC, if indicated. The volume of the dilution series was 40 μl, which was later divided into three technical replicates of 10 μl upon transferring to 384-well micro-plates (low binding microplate, 384 well, E18063G5, Greiner Bio-One, Kremsmünster, Austria). In total, polarization of the probe was measured at eight different protein concentrations (whereas one contained no protein and corresponded to the free peptide). In competitive FP measurements, the same buffer was supplemented with the protein to achieve a complex formation of 60–80%, based on the direct titration. Then, this mixture was used for creating a dilution series of the unlabeled competitor (i.e., the studied peptides) and the measurement was carried out identically as in the direct experiment.
(§5) All FP experiments were done in triplicates. Analysis of FP experiments were carried out using ProFit, an in-house developed, Python-based fitting program. ProFit utilizes a Monte Carlo approach to take into account experimental variability. It generates hundreds of simulated datasets, based on the experimental data variance and fits direct and competitive measurements in pairs.

The next test concerns the target T2, 14-3-3γ (Homo sapiens, UniProt P61981).
T2 construct: full-length human 14-3-3 constructs with an N-terminal MBP fusion were used; made in house; host or cells: E. coli BL21(DE3)
T2 sequence (P61981 1-247): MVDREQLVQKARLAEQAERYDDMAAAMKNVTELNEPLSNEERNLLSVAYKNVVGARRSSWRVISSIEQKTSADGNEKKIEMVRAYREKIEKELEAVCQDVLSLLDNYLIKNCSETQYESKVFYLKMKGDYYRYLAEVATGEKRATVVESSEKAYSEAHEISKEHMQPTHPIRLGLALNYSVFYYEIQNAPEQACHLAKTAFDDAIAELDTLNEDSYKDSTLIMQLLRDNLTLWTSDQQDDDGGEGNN
How it is done:
as §1, §2, §3, §4, §5

The next test deals with T3, 14-3-3σ (Homo sapiens, UniProt P31947).
T3 construct: cDNAs encoding other full-length 14-3-3 isoforms β, τ, η, and σ were obtained as codon-optimized; made in house; host or cells: E. coli BL21(DE3)
T3 sequence (P31947 1-248): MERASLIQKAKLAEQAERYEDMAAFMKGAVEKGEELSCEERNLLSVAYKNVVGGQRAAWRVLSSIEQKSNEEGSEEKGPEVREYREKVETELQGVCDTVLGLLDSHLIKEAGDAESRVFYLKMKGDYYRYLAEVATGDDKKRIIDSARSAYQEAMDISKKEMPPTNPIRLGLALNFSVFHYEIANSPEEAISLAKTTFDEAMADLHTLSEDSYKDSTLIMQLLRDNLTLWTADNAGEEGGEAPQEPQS
The protocol:
as §1, §2, §3, §4, §5

A further test has as its target T4, 14-3-3τ (Homo sapiens, UniProt P27348).
T4 construct: cDNAs encoding other full-length 14-3-3 isoforms β, τ, η, and σ were obtained as codon-optimized; made in house; host or cells: E. coli BL21(DE3)
T4 sequence (P27348 1-245): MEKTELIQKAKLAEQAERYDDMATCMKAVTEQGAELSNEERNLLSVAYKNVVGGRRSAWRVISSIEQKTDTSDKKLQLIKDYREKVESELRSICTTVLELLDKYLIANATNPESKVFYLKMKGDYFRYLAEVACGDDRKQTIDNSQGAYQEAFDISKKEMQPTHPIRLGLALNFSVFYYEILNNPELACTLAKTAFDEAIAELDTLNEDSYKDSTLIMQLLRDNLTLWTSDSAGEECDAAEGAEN
How it is done: as §1, §2, §3, §4, §5

[1] abbreviates: Figure 4 panel a, unit from the colour scale line, motifs measured in this work.

Consider `CC(C)C[C@H](NC(=O)[C@H](CCC(N)=O)NC(=O)[C@@H](NC(=O)[C@H](CCC(=O)O)NC(=O)[C@H](CCCNC(=N)N)NC(=O)[C@H](CCCNC(=N)N)NC(=O)[C@@H](NC(=O)[C@H](CCCNC(=N)N)NC(=O)[C@H](CO)NC(=O)[C@H](CO)NC(=O)CCC(=O)NCCCOCCOCCOCCCNC(=O)CCCC[C@@H]1SC[C@@H]2NC(=O)N[C@@H]21)[C@@H](C)O)[C@@H](C)OP(=O)(O)O)C(=O)O` [pHPV16E6], for which the equilibrium dissociation constant (Kd) on 14-3-3β is 159 ± 45 µM; on 14-3-3γ, 37.2 ± 3 µM; on 14-3-3σ, above 300 µM; at 14-3-3τ, 144 ± 28 µM. At 14-3-3σ (setting [1]), the “Binding affinities (KD) of various 14-3-3-binding motifs, 14-3-3σ” value (from here on “Binding affinities (KD) … 14-3-3σ”) is “√”. Further, at 14-3-3τ (setting [1]), the “Binding affinities (KD) of various 14-3-3-binding motifs, 14-3-3τ” value came out at 144 µM.
As to `CC(C)C[C@H](NC(=O)[C@H](CCCNC(=N)N)NC(=O)CCC(=O)NCCCOCCOCCOCCCNC(=O)CCCC[C@@H]1SC[C@@H]2NC(=O)N[C@@H]21)C(=O)N[C@@H](CCC(N)=O)C(=O)N[C@@H](CCCNC(=N)N)C(=O)N[C@@H](CCCNC(=N)N)C(=O)N[C@@H](CCCNC(=N)N)C(=O)N[C@@H](CCC(=O)O)C(=O)N[C@H](C(=O)N[C@@H](CCC(N)=O)C(=O)N[C@H](C(=O)O)C(C)C)[C@@H](C)OP(=O)(O)O` [pHPV18E6], the Kd amounted to 42.2 ± 6.3 µM at 14-3-3β, 11.1 ± 0.6 µM on 14-3-3γ, 139 ± 24 µM at 14-3-3σ and 37.8 ± 6 µM on 14-3-3τ.
With `CC(C)C[C@H](NC(=O)[C@H](C)NC(=O)[C@@H](NC(=O)[C@H](CCC(=O)O)NC(=O)[C@H](CCCNC(=N)N)NC(=O)[C@H](CCCNC(=N)N)NC(=O)[C@H](CCCNC(=N)N)NC(=O)[C@H](CO)NC(=O)[C@H](CCCNC(=N)N)NC(=O)[C@H](CO)NC(=O)CCC(=O)NCCCOCCOCCOCCCNC(=O)CCCC[C@@H]1SC[C@@H]2NC(=O)N[C@@H]21)[C@@H](C)OP(=O)(O)O)C(=O)O` [pHPV33E6] ({X1-Suc}-SRSRRRE[pT]AL-OH), the Kd on 14-3-3β is 4.05 µM; at 14-3-3γ (Binding affinities (KD) of various 14-3-3-binding motifs, 14-3-3γ), 0.94 µM; on 14-3-3γ (KD (μM) ± std 14-3-3γ), below 1 µM; at 14-3-3σ, 6.77 µM; on 14-3-3τ it was 3.52 µM.
`CC(C)[C@H](NC(=O)[C@H](C)NC(=O)[C@@H](NC(=O)[C@H](CCC(=O)O)NC(=O)[C@H](CCCNC(=N)N)NC(=O)[C@H](CCCNC(=N)N)NC(=O)[C@@H](NC(=O)[C@@H]1CCCN1C(=O)[C@H](CCCCN)NC(=O)[C@H](CO)NC(=O)CCC(=O)NCCCOCCOCCOCCCNC(=O)CCCC[C@@H]1SC[C@@H]2NC(=O)N[C@@H]21)[C@@H](C)O)[C@@H](C)OP(=O)(O)O)C(=O)O` [pHPV35E6E-1A] ({X1-Suc}-SKPTRRE[pT]AV-OH): the dissociation constant (Kd) at 14-3-3β is 20.2 µM; at 14-3-3γ it was 9.31 µM; on 14-3-3σ, 44.1 µM; at 14-3-3τ, 21.5 µM.
`CC(C)[C@H](NC(=O)[C@H](CCC(=O)O)NC(=O)[C@@H](NC(=O)[C@H](CCC(=O)O)NC(=O)[C@H](CCCNC(=N)N)NC(=O)[C@H](CCCNC(=N)N)NC(=O)[C@H](CCCNC(=N)N)NC(=O)[C@@H]1CCCN1C(=O)[C@H](CCCCN)NC(=O)[C@H](CO)NC(=O)CCC(=O)NCCCOCCOCCOCCCNC(=O)CCCC[C@@H]1SC[C@@H]2NC(=O)N[C@@H]21)[C@@H](C)OP(=O)(O)O)C(=O)O` [pHPV35E6T-6R] ({X1-Suc}-SKPRRRE[pT]EV-OH): the Kd on 14-3-3β was 179 ± 29 µM; on 14-3-3γ, 71.2 ± 6.7 µM; on 14-3-3σ it was above 300 µM; at 14-3-3τ, 194 ± 37 µM. At 14-3-3σ (setting [1]), the “Binding affinities (KD) … 14-3-3σ” value is reported as “√”.
Take `CC(C)[C@H](NC(=O)[C@H](CCC(=O)O)NC(=O)[C@@H](NC(=O)[C@H](CCC(=O)O)NC(=O)[C@H](CCCNC(=N)N)NC(=O)[C@H](CCCNC(=N)N)NC(=O)[C@@H](NC(=O)[C@@H]1CCCN1C(=O)[C@H](CCCCN)NC(=O)[C@H](CO)NC(=O)CCC(=O)NCCCOCCOCCOCCCNC(=O)CCCC[C@@H]1SC[C@@H]2NC(=O)N[C@@H]21)[C@@H](C)O)[C@@H](C)OP(=O)(O)O)C(=O)O` [pHPV35E6] ({X1-Suc}-SKPTRRE[pT]EV-OH): the “Binding affinities (KD) of various 14-3-3-binding motifs, 14-3-3β” value at 14-3-3β is listed as “√”. The Kd at 14-3-3β was above 300 µM; on 14-3-3γ (KD (μM) ± std 14-3-3γ), 125 ± 6 µM; on 14-3-3σ it was above 300 µM; on 14-3-3τ, 233 ± 14 µM. At 14-3-3σ, the “Binding affinities (KD) … 14-3-3σ” value was “√”.

Broadly, the Kd is the equilibrium constant for the complex coming apart. A lower Kd goes with a tighter complex.
